Reference: ChEMBL document CHEMBL1150010, “Inhibition of cartilage degradation by isothiazoloquinolinones” (Bioorg Med Chem Lett, 1994)

Species: Bos taurus
Assay: In vitro inhibition of IL1-beta (interleukin-1-beta) induced degradation of bovine nasal cartilage in an organ culture assay at 30 uM
Format: functional

Compound	inhibition at 30 µM
COc1cc2c(=O)cc3c4ccccc4sn3c2c(OC)c1OC	80%
O=c1cc2c3ccccc3sn2c2ccc(Cl)cc12	84%
COc1cccc2c1sn1c3ccccc3c(=O)cc21	30%
COc1cccc2c(=O)cc3c4ccccc4sn3c12	74%

Species: Bos taurus
Assay: In vitro inhibition of IL1-beta (interleukin-1-beta) induced degradation of bovine nasal cartilage in an organ culture assay
Format: functional

Compound	IC50
O=c1cc2c3ccccc3sn2c2ccccc12	8 µM
O=c1cc2c3cccnc3sn2c2ccccc12	22 µM
